Measured values: PubChem BioAssay (NCI)
Values joined by “and” are separate entries in the source; they are usually repeats but may differ in a detail not shown here. Equal values may be shown once.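 Method: 48-hour compound exposure of cells in 96-well plates, five concentrations, linear interpolation of endpoints. GI50 is the concentration that inhibits growth by half. TGI denotes the concentration required for complete inhibition of growth.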

Tests used:
Test in all cases: DTP human tumour cell line panel, 48 h
[1] = test system: NCI-H522 lung
[2] = test system: ACHN renal
[3] = test system: SR leukemia
[4] = test system: HT29 colon
[5] = test system: OVCAR-3 ovarian
[6] = test system: M14 melanoma
[7] = test system: COLO 205 colon
[8] = test system: NCI/ADR-RES ovarian
[9] = test system: HOP-92 NSCLC
[10] = test system: T-47D breast

Row | Compound | TGI [1] | TGI [2] | TGI [3] | TGI [4] | TGI [5] [µM] | TGI [6] [µM] | GI50 [1] [µM] | GI50 [2] [µM] | GI50 [7] | TGI [7] | GI50 [3] [µM] | GI50 [4] [µM] | GI50 [8] [µM] | GI50 [9] [µM] | TGI [9] | GI50 [6] | GI50 [5] [µM] | TGI [8] [µM] | GI50 [10] [µM] | TGI [10] [µM]
1 | CN(C)c1ccc2c(NCCCCCCNc3ccnc4cc(N(C)C)ccc34)ccnc2c1 | 25.2 µM | 33.6 µM | > 100 µM | > 100 µM | 27.7 | > 100 |  |  |  |  |  |  |  |  |  |  |  |  |  | 
2 | COc1cc(Cn2cc3c(c2)-c2oncc2CC3)cc(OC)c1OC | 1.29 µM | > 100 µM | > 100 µM | > 100 µM |  | 38.9 | 0.0398 | 0.134 | 0.0332 µM | 0.0957 µM | 0.0286 | 0.0339 | 0.0268 | 31 | > 100 µM | 0.0274 µM |  |  |  | 
3 | Nc1cc(=O)[nH]c(SC2=NC(N)CC(O)C2)n1 (centres undefined) | > 100 µM | > 100 µM | > 100 µM | > 100 µM | > 100 | > 100 |  |  |  | > 100 µM |  |  |  |  | > 100 µM |  |  |  |  | 
4 | CCOP(=O)(OCC)C1CCCCOC1=O (centres undefined) |  | > 100 µM |  | > 100 µM | > 100 | > 100 |  |  |  | > 100 µM |  |  |  |  |  |  |  |  |  | 
5 | CC(=O)[O][Pb]([O]C(C)=O)([c]1ccccc1)[c]1ccccc1 | 7.46 µM | > 100 µM | > 100 µM | > 100 µM | > 100 | > 100 | 0.657 | > 100 | 1.76 µM | 15 µM | 6.22 | 14.5 |  | 3.62 | > 100 µM | > 48 µM | 2.4 |  |  | 
6 | C=C1C(=O)O[C@@H]2C1CC(=O)C(C)CC/C=C(\C)CCC[C@H](C)[C@H]2OC(C)=O (some centres undefined) | 41.6 µM | 24.1 µM |  | > 100 µM | 21.8 | 16 | 15.9 | 11.4 | 5.34 µM | > 100 µM |  | 5.28 | 15.3 | 1.64 | 9.12 µM | 4.24 µM | 10.2 | 40.9 | 20.4 | 58.5
7 | C=C1C(=O)O[C@H]2C[C@@H](C)[C@@H]3CC(=O)OC[C@@]3(C)CC12 (some centres undefined) | 12 µM | 60 µM |  | 50.1 µM | 74.6 | 31.6 |  |  |  | 60.7 µM |  |  |  |  | 34.8 µM |  |  |  |  | 
8 | CC1CC2C(=O)NC(=O)C2c2[nH]c3ccccc3c21 (centres undefined) | > 100 µM | > 100 µM | > 100 µM | > 100 µM | > 100 | > 100 |  |  |  | > 100 µM |  |  |  |  | > 100 µM |  |  |  |  | 
9 | COc1ccccc1[N-]C(C1=C([O-])c2ccccc2C1=O)c1ccccc1.COc1ccccc1[N-]C(C1=C([O-])c2ccccc2C1=O)c1ccccc1.[Cu+2] (centres undefined) |  | 74.7 µM | > 100 µM | > 100 µM | 54.2 | > 100 |  | 10.9 | 3.95 µM | 30 µM | 8.58 | 18.2 |  | 9.86 | 69.7 µM | 4.58 µM | 13.8 |  |  | 
10 | N#CC(C#N)=Cc1ccc(-c2ccc(-c3nc4ccccc4s3)cc2)o1 | 51.8 µM | > 100 µM |  | > 100 µM | > 100 | > 100 | 17.8 | 18.5 | 20.6 µM | 55.3 µM |  | 46 | 4.16 |  |  | > 100 µM | 66.9 | 14.3 | 4.46 | 38.2
11 | CCc1ccc(NCc2cc(OC)c(OC)c(OC)c2)cc1 | 0.59 µM and 0.807 µM | 66.7 µM and 77.4 µM | 44.6 µM and > 100 µM | 1.72 µM and 1.39 µM | 1.32 | 27.6 | 0.274 |  | 0.251 µM and 0.333 µM | 1.3 µM and 1.47 µM |  |  |  | 5.24 | 22.2 µM and 74.6 µM | 0.261 µM and 0.392 µM | 0.348 |  |  | 74.5
12 | CN1CCc2c1nc(-c1ccccc1)c1c2N(C)CC1 |  | > 100 µM |  | > 100 µM | > 100 | > 100 |  |  |  | > 100 µM |  |  |  |  | 91 µM |  |  |  |  | 
13 | CCCC(O)[C@@H](O)c1ccc2c(c1O)C(=O)c1c(OC)cccc1C2=O (some centres undefined) | 42.1 µM | > 100 µM | 66.6 µM | > 100 µM | > 100 | 69.1 |  |  |  | 44.8 µM |  |  |  |  | > 100 µM |  |  |  |  | 
14 | CCc1c(C)[nH]c(/C=C2\N=C(c3ccc[nH]3)C=C2OC)c1C | 2.34 µM | 2.19 µM |  | 2.29 µM | 3.18 | 2.99 | 0.576 | 0.316 | 0.268 µM | 1.88 µM |  | < 0.0376 | 0.17 | 0.135 | 0.682 µM | 0.256 µM | 0.143 | 6.42 | 0.545 | 3.22
15 | C=CCC(N[C@H](CO)C(C)C)c1cn(C(=O)OCC)c2ccccc12 (some centres undefined) | 40.2 µM | > 100 µM |  | > 100 µM | 43.3 | 46 | 17.9 | 32.1 | 25.4 µM | 65.9 µM |  | 36.1 | 21.8 | 14.1 | 45.6 µM | 21.3 µM | 16.6 | 61 | 39.9 | > 100
16 | Nc1ncnc2sc(=S)c3c(c12)CCC3 | > 100 µM | > 100 µM |  | 62.8 µM | > 100 | > 100 | 47.1 | 26.3 | 25.1 µM | 62.6 µM |  | 29.8 | 30.1 |  |  | 42.7 µM | 30.7 | > 100 |  | 
17 | CC1(C)CCC2(C(=O)OC3OC(CO)C(O)C(O)C3O)CC[C@]3(C)C(=CCC4C5(C)CC[C@H](OC6OC(C(=O)O)C(O)C(O)C6O)C(C)(C)C5CCC43C)C2C1 (some centres undefined) | 9.71 µM | 12.6 µM |  | > 50 µM | > 50 | 4.33 | 1.72 | 6.3 | 1.36 µM | 3.55 µM |  | 2.07 | > 50 | 1.04 | 2.98 µM | 1.47 µM | 3.27 | > 50 | 1.75 | 5.98
